The values below come from publication PMC7613620, “Reaction hijacking of tyrosine tRNA synthetase as a whole-of-life-cycle antimalarial strategy” (Science (New York, N.Y.), 2022).

One experiment has as its system H460. As to the kind of experiment: H460 cell viability (ATP content). Format: cell-based. Particulars: Homo sapiens, NCI-H460, 72 h, read-out: H460 IC50(72h). As for the experimental part: (§1) 574 H1650 is a human lung cancer derived ATG7-null cell line (49) that can be used to assess effects on targets
(§2) 576 adenocarcinoma; bronchoalveolar carcinoma). Other cells lines used are: H460 (NCI-H460; human lung;
(§3) 577 carcinoma; large cell lung cancer; ATCC: HTB-177); and HCT116 (human colon; colorectal carcinoma;
(§4) 578 ATCC: CCL-247; Lot : 5056139). Each of the cell lines was received from the American Type Culture
(§5) 579 Collection (ATCC) and passaged twice before freezing. Cells were cultured in the presence or absence of
(§6) 580 inhibitors and cell viability was assessed by comparing the ATP content in compound-treated wells with
(§7) 581 that in DMSO-treated wells as previously described (11). […]
(§8) 585 37°C humidified incubator as adherent semi-confluent monolayers in complete Dulbecco’s Modified Eagle
(§9) 586 Media (c-DMEM). DMEM (Gibco™, Thermo Fisher Scientific, Australia) was supplemented with 10%

For a further experiment, the system named is H1650. As to the kind of experiment: H1650 cell viability (ATP content). The class given is cell-based. The note with it: Homo sapiens, NCI-H1650, read-out: H1650 IC50(72h); 72 h; ATG7-null cell line. As for the experimental part: as §1, §2, §3, §4, §5, §6, §7, §8, §9
For experiment [1], the system named is P. falciparum (Cam3.II-rev) schizont stage. As to the kind of experiment: 3 h drug pulse viability assay. Format: cell-based, Plasmodium falciparum. The note with it: Plasmodium falciparum, 3 h, read-out: IC50 (Viability). As for the experimental part:
553 Sigma-Aldrich) for 48-72 h. For drug pulse assays, tightly synchronized parasites (1-1.5% parasitemia,
554 0.2% final hematocrit) were added to the plates and incubated for 3 h. Drugs were removed and the
555 parasitemia assessed in the trophozoite stage of the next cycle.
557 Compounds were tested against a range of drug resistant field isolates and laboratory strains using a
558 modified [3H]-hypoxanthine incorporation assay, as previously reported (46). Field isolates 7G8, Cam3.1,
559 Dd2, K1, TM90C2B and NF54 were obtained from MR4 (www.beiresources.org).
561 Mammalian cell culture experiments
562 The HepG2 (Human hepatocyte carcinoma) cell line was procured from ATCC (American Type
563 Culture Collection, Manassas, USA; HB-8065) and viability assessed using Cell Titer-GLO luminescent
564 cell viability assay reagents (Promega, catalogue number: G7570) (47, 48). For the assay, 2000 cells/well
565 were plated in 384-well plates 24 h prior to the experiment and incubated at 37°C in a CO2 incubator. The
566 medium was removed and cells were treated with fresh medium containing either vehicle (0.5% DMSO)
567 or serially diluted test compounds or doxorubicin (1.3 nM to 25 µM) in a final volume of 50 µl/well and
568 further incubated for 72 h at 37°C in a CO2 incubator.
569 were treated with 5 µl of 1% Triton X-100 (final assay conc. 0.1%). Following incubation, 25 µl of medium
570 was discarded and 25 µl of Cell Titer-GLO reagent was added to each well and the plate was kept on a plate
571 shaker for 15 min at 25°C with shaking at 300 rpm. Luminescence signals were measured in a Spectramax
572 M5 reader (Molecular Devices).
as §1, §2, §3
578 ATCC: CCL-247; Lot : 5056139). […]
580 inhibitors and cell viability was assessed by comparing the ATP content in compound-treated wells with […]

Take `Nc1ncnc2c1c(OC(F)F)nn2[C@@H]1O[C@H](COS(N)(=O)=O)[C@@H](O)[C@H]1O` [ML901]: the IC50 in the experiment on H460 amounted to 4.65 µM; with H1650, 10.7 µM; in experiment [1], 56 nM.

What is called IC50 is the concentration that gives 50% inhibition.
